Data published in US8232287B2, “Pyrimidyl indoline compound” (Daiichi Sankyo Company, Limited, priority 2007, dated 2012).

System: Mice C57/BL6J
Test: Oral glucose tolerance test (oGTT) using mice
Type: in vivo
Conditions: Mus musculus, 2 h; blood glucose AUC vs vehicle-administered group; fasted male C57/BL6J mice; 1 mg/ml suspension in 0.5% methylcellulose given orally 30 min before oral glucose load; plasma glucose at pre, 15, 30, 60, 120 min; read-out: Rate of decrease in AUC (%)
Experimental: Oral Glucose Tolerance Test (oGTT) Using Mice
2.0 to 8.0 mg of a test compound was weighed and then placed in an agate mortar. While the compound was pulverized, a 0.5% methylcellulose solution was added thereto to prepare a 1 mg/ml suspension. Mice C57/BL6J (6- to 8-week-old male) were purchased from Charles River Laboratories Japan Inc. and raised in a cage until they became 9- to 13-week-old. The mice were fasted after 5 to 6 p.m. of the day before the test. On the test day, blood was collected from the tail vein, and the preceding prepared suspension was orally administered to each of the mice. Thirty minutes after administration, blood was further collected from the tail vein (plasma glucose level in this blood was used as a pre-value), and a 20 to 30% glucose solution was then orally administered thereto at a dose of 10 ml/kg for glucose load. After the glucose load, blood was further collected from the tail vein at time points 15, 30, 60, and 120 minutes. The collected blood was centrifuged to separate plasma. The pre-value and plasma glucose levels at 15, 30, 60, and 120 minutes after the glucose load were measured using Glucoroder GXT (Shino-Test Corp.), and the rate of decrease in blood glucose AUC (%) from a vehicle-administered group was calculated. To this vehicle-administered group, a 0.5% methylcellulose solution was administered instead of the suspension of the compound.

Which inhibition in vivo at 1000 µg/mL does the source give for `CCS(=O)(=O)c1ccc2c(c1)CCN2c1cc(OC2CCN(C(=O)OC(C)C)CC2)ncn1` [Example 31, isopropyl 4-({6-[5-(ethylsulfonyl)indolin-1-yl]pyrimidin-4-yl}oxy)piperidine-1-carboxylate] here?
Its inhibition in vivo at 1000 µg/mL is 20%.

How did the inhibition in vivo at 1000 µg/mL turn out when `CCS(=O)(=O)c1ccc2c(c1)CCN2c1cc(OC2CCN(C(=O)OCC(C)C)CC2)ncn1` [Example 22, isobutyl 4-({6-[5-(ethylsulfonyl)indolin-1-yl]pyrimidin-4-yl}oxy)piperidine-1-carboxylate] was run?
The inhibition in vivo at 1000 µg/mL was 21%.

How did the inhibition in vivo at 1000 µg/mL turn out when `CC(C)(C)OC(=O)N1CCC(Oc2cc(N3CCc4cc(S(C)(=O)=O)ccc43)ncn2)CC1` [Example 1, tert-butyl 4-({6-[5-(methylsulfonyl)indolin-1-yl]pyrimidin-4-yl}oxy)piperidine-1-carboxylate] was run?
The inhibition in vivo at 1000 µg/mL was 28%.

For `CC(C)OC(=O)N1CCC(Oc2cc(N3CCc4cc(S(C)(=O)=O)ccc43)ncn2)CC1` [Example 2, isopropyl 4-({6-[5-(methylsulfonyl)indolin-1-yl]pyrimidin-4-yl}oxy)piperidine-1-carboxylate], which inhibition in vivo at 1000 µg/mL is on record?
The inhibition in vivo at 1000 µg/mL was 22%.

`CS(=O)(=O)c1ccc2c(c1)CCN2c1cc(OC2CCN(C(=O)Oc3ccc(F)cc3)CC2)ncn1` [Example 93, 4-fluorophenyl 4-({6-[5-(methylsulfonyl)indolin-1-yl]pyrimidin-4-yl}oxy)piperidine-1-carboxylate] was tested. Which inhibition in vivo at 1000 µg/mL did it give?
The inhibition in vivo at 1000 µg/mL was 15%.

Which inhibition in vivo at 1000 µg/mL does the source give for `CCS(=O)(=O)c1ccc2c(c1)CCN2c1cc(OC2CCN(C(=O)OCC(F)F)CC2)ncn1` [Example 60, 2,2-difluoroethyl 4-({6-[5-(ethylsulfonyl)indolin-1-yl]pyrimidin-4-yl}oxy)piperidine-1-carboxylate] here?
The inhibition in vivo at 1000 µg/mL was 22%.

With `CS(=O)(=O)c1ccc2c(c1)CCN2c1cc(OC2CCN(C(=O)OCC3CC3)CC2)ncn1` [Example 44, cyclopropylmethyl 4-({6-[5-(methylsulfonyl)indolin-1-yl]pyrimidin-4-yl}oxy)piperidine-1-carboxylate] as the molecule, how does the inhibition in vivo at 1000 µg/mL read?
Its inhibition in vivo at 1000 µg/mL is 18%.

With `CC(C)CC(=O)N1CCC(Oc2cc(N3CCc4cc(S(C)(=O)=O)ccc43)ncn2)CC1` [Example 92, 1-(6-{[1-(3-methylbutanoyl)piperidin-4-yl]oxy}pyrimidin-4-yl)-5-(methylsulfonyl)indoline] as the molecule, how does the inhibition in vivo at 1000 µg/mL read?
Its inhibition in vivo at 1000 µg/mL is 16%.

Which inhibition in vivo at 1000 µg/mL does the source give for `CC(C)OC(=O)N1CC[C@H](Oc2cc(N3CCc4cc(S(C)(=O)=O)ccc43)ncn2)[C@H](F)C1` (relative stereo) [Example 117, isopropyl cis-3-fluoro-4-[6-(5-methanesulfonyl-2,3-dihydro-indol-1-yl)-pyrimidin-4-yloxy]-piperidine-1-carboxylate] here?
Its inhibition in vivo at 1000 µg/mL is 27%.

With `CC(C)(C)OC(=O)N1CCC(Oc2cc(N3CCc4cc(S(=O)(=O)CCF)ccc43)ncn2)CC1` [Example 85, tert-butyl 4-[(6-{5-[(2-fluoroethyl)sulfonyl]indolin-1-yl}pyrimidin-4-yl)oxy]piperidine-1-carboxylate] as the molecule, how does the inhibition in vivo at 1000 µg/mL read?
Its inhibition in vivo at 1000 µg/mL is 27%.

How did the inhibition in vivo at 1000 µg/mL turn out when `C[S+]([O-])c1ccc2c(c1)CCN2c1cc(OC2CCN(C(=O)OCC(F)(F)F)CC2)ncn1` (stereo not drawn) [Example 116, 2,2,2-trifluoroethyl 4-({6-[5-(methylsulfinyl)indolin-1-yl]pyrimidin-4-yl}oxy)piperidine-1-carboxylate] was run?
Its inhibition in vivo at 1000 µg/mL is 17%.

For `COc1c(OC2CCN(C(=O)OC(C)C)CC2)ncnc1N1CCc2cc(S(C)(=O)=O)ccc21` [Example 83, isopropyl 4-({5-methoxy-6-[5-(methylsulfonyl)indolin-1-yl]pyrimidin-4-yl}oxy)piperidine-1-carboxylate], which inhibition in vivo at 1000 µg/mL is on record?
The inhibition in vivo at 1000 µg/mL was 20%.

For `CS(=O)(=O)c1ccc2c(c1)CCN2c1cc(OC2CCN(C(=O)OCC(F)(F)F)CC2)ncn1` [Example 104, 2,2,2-trifluoroethyl 4-({6-[5-(methylsulfonyl)indolin-1-yl]pyrimidin-4-yl}oxy)piperidine-1-carboxylate], which inhibition in vivo at 1000 µg/mL is on record?
The inhibition in vivo at 1000 µg/mL was 10%.

For `C[S+]([O-])c1ccc2c(c1)CCN2c1cc(OC2CCN(C(=O)OCC3CC3)CC2)ncn1` (stereo not drawn) [Example 118, cyclopropylmethyl 4-({6-[5-(methylsulfinyl)indolin-1-yl]pyrimidin-4-yl}oxy)piperidine-1-carboxylate], which inhibition in vivo at 1000 µg/mL is on record?
The inhibition in vivo at 1000 µg/mL was 16%.

Which inhibition in vivo at 1000 µg/mL does the source give for `C[S+]([O-])c1ccc2c(c1)CCN2c1cc(OC2CCN(C(=O)OC(C)(C)C)CC2)ncn1` (stereo not drawn) [Example 80, tert-butyl 4-({6-[5-(methylsulfinyl)indolin-1-yl]pyrimidin-4-yl}oxy)piperidine-1-carboxylate] here?
The inhibition in vivo at 1000 µg/mL was 19%.
